Data set [1] relates to hepatocellular carcinoma tumor cell Huh7 xenografts. The data set can be described thus: Growth inhibition of Huh7 xenografts in tumor-bearing BALB/c nude mice. The note with it: bid. The format is in vivo. As for the experimental part: On day 0, Huh7 cells were cultured in DMEM medium containing 10% of fetal bovine serum, 100 U of penicillin, and 100 μg/mL of streptomycin. And cultured in an incubator of 37° C., 5% CO2.
Each mouse was inoculated subcutaneously in the right axilla with 150 μL of cell suspension (5.0×10^6 cells/mouse) under sterile conditions. On day 12 after inoculation, when the tumor grew to a volume of 200-300 mm^3, mice with similar tumor volume and good shape were selected (the shape was as single spherical as possible, no irregular shape or multiple tumors gathered together) and divided into 5 groups, each group had 9 mice.
(§1) Each group of animals was administrated (intraperitoneal injection (ip) or oral administration (po)) a test substance twice a day (bid) at a fix time per day according to the body weight of the animals. The first dose was administered on the day of grouping ([…]), and continued for 22 days, the body weight of the animals was recorded daily.
The formation of tumor in the inoculated part of each group of animals was observed. The long diameter (Y) and short diameter (X) of the tumor nodules were measured twice a week using vernier calipers and calculated according to the following formula: Volume of tumor nodules(V): V=(X^2Y)/2.
Evaluation index of antitumor activity: tumor growth inhibition rate TGI (%), relative tumor proliferation rate T/C (%).
The relative tumor volume (RTV) is calculated as: RTV=100×TVt/TVinitial
wherein, TVinitial is the tumor volume measured at the time of grouping administration; TVt is the tumor volume at each measurement during administration.
The calculation formula for the relative tumor proliferation rate (% T/C) is: % T/C=100%×(RTVT/RTVC)
wherein, RTVT represents RTV of the treatment group; RTVC represents RTV of the solvent control group.
wherein, TVt(T) represents the tumor volume at each measurement in the treatment group; TVinitial(T) represents the tumor volume of the treatment group at the time of grouping administration; TVt(C) represents the tumor volume at each measurement in the solvent control group; TVinitial(C) represents the tumor volume of the solvent control group at the time of grouping administration.
wherein, WC represents the tumor weight of the control group; WT represents the tumor weight of the treatment group.

The test system of data set [2] is hepatocellular carcinoma tumor cells Huh7. Nature of the data set: Huh7 tumor cell proliferation inhibition (CCK-8). The following applies: 72 hours culture. The format is cell-based, human.
Method: For the FGFR4 subtype, hepatocellular carcinoma tumor cells Huh7 (purchased from the Cell Resource Center of Shanghai Institutes for Biological Sciences, Chinese Academy of Sciences) were used to determine the inhibition against the activity of hepatocellular carcinoma tumor cells. Huh7 cells were cultured in a DMEM medium containing 10% of fetal bovine serum, 100 U of penicillin and 100 μg/mL of streptomycin. Cultured in an incubator of 37° C., 5% CO2. Hepatocellular carcinoma tumor cell activity was measured by using a kit of Cell Counting Kit-8 (Dojindo, Dojindo Molecular Technologies, Inc).
The experimental method was carried out according to the steps of the kit instructions, and is briefly described as follows: the test compound was first dissolved in DMSO to prepare a stock solution, and then gradiently diluted with the corresponding medium of the cells to prepare a test sample, and the final concentration of the compound was in the range of 30 μM to 0.01 nM. Tumor cells in the logarithmic phase were seeded into 96-well cell culture plates at a suitable density, cultured in an incubator of 37° C., 5% CO2 overnight, then test compound samples were added and continued to culture the cells for 72 hours.
The nature of data set [3]: Body weight and weight loss rate of Huh7 tumor-bearing BALB/c nude mice during administration. The following applies: 25 mg/kg IP, bid. The format is in vivo. As for the experimental part: as §1
The calculation formula for the weight loss rate of animals is (see FIG. 3 for the results): Weight loss rate of animals=100%×(BWinitial−BWt)/BWinitial
wherein, BWt represents the body weight of the animal at each measurement during administration; BWinitial represents the body weight of the animal at the time of grouping administration.

Where [4] appears, read: 25 mg/kg IP, end of the experiment.

In general, IC50 refers to the midpoint of a concentration-inhibition curve.

As for `C=CC(=O)Nc1cc(N2CCN(CC)C3(CC3)C2)ccc1Nc1cc(N(C)C(=O)Nc2c(Cl)c(OC)cc(OC)c2Cl)ncn1` [Example 5, N-(2-((6-(3-(2,6-Dichloro-3,5-dimethoxyphenyl)-1-methylureido)pyrimidin-4-yl)amino)-5-(4-ethyl-4,7-diazaspiro[2.5]octan-7-yl)phenyl)acrylamide], the “Tumor weight (g) Mean ± standard error” value is 0.8393 ± 0.0602 g in data set [1] (setting [4]); 0.6473 ± 0.0597 g in data set [1] (50 mg/kg IP, end of the experiment); 0.0562 ± 0.0069 g in data set [1] (300 mg/kg PO, end of the experiment).

In turn, `C=CC(=O)Nc1cc(N2CCN(CC)CC2)ccc1Nc1cc(N(C)C(=O)Nc2c(Cl)c(OC)cc(OC)c2Cl)ncn1` [Example 108 of WO2015057938, reference compound] registered an IC50 in data set [2] of 18 nM. Besides, the “Tumor growth inhibition rate (TGI %)” value in data set [1] (25 mg/kg IP, Day 16 after inoculation) is on record as 34%; in data set [1] (25 mg/kg IP, Day 20 after inoculation) it was 21%; in data set [1] (25 mg/kg IP, Day 23 after inoculation) it was 21%; in data set [1] (25 mg/kg IP, Day 27 after inoculation), 29%; in data set [1] (25 mg/kg IP, Day 30 after inoculation), 24%; in data set [1] (25 mg/kg IP, Day 34 after inoculation) it was 16%. For the same compound, the “Tumor weight (g) Mean ± standard error” value in data set [1] (setting [4]) is recorded as 0.9106 ± 0.0583 g. Besides, the “Tumor weight inhibition rate (%)” value in data set [1] (setting [4]) was 2.2%. For the same compound, the “Animal body weight ± standard error” value in data set [3] (Day 13 after inoculation) was determined as 18.0 ± 0.3 g; in data set [3] (Day 16 after inoculation), 18.1 ± 0.3 g; in data set [3] (Day 20 after inoculation), 19.2 ± 0.4 g; in data set [3] (Day 23 after inoculation) it was 18.3 ± 0.2 g; in data set [3] (Day 27 after inoculation), 18.4 ± 0.3 g; in data set [3] (Day 30 after inoculation) it was 18.7 ± 0.2 g. For the same compound, the “Animal body weight ± standard error” value in data set [3] (Day 34 after inoculation) came out at 18.9 ± 0.3 g. The “weight loss rate (%)” value in data set [3] (Day 13 after inoculation) is given as 0%; in data set [3] (Day 16 after inoculation) it was −0.62%; in data set [3] (Day 20 after inoculation), −6.7%; in data set [3] (Day 23 after inoculation), −2.0%; in data set [3] (Day 27 after inoculation), −2.7%; in data set [3] (Day 30 after inoculation), −4.2%. In addition, the “weight loss rate (%)” value in data set [3] (Day 34 after inoculation) is given as −5.0%.

Source of the values: patent US10654836B2, “Pyrimidine derivative, method for preparing same and use thereof in medicine” (Zhejiang Hisun Pharmaceutical Co., Ltd., priority 2016, dated 2020).
